The text below walks through data of patent publication US11414437B2, “Borate compound, and synthesis method therefor and uses thereof” (CHENGDU ORIGIN BIOTECHNOLOGY LIMITED COMPANY, priority 2017, dated 2022).

The nature of series [1]: High-temperature and high-humidity accelerated stability test. It counts as physicochemical. To be noted: compared with compounds 8l, MLN9708, MLN2238 of the prior art. The source says: In addition, the compound of the present invention has better stability.
For another series, the target named is hERG potassium channel (Homo sapiens, UniProt Q12809). Put plainly: Inhibition test of hERG potassium channel of heart (patch clamp). It counts as cell-based. An excerpt: An inhibitory effect of the tested compound on hERG was judged by a general standard (Roche O. et al. ChemBioChem. 2002, 3:455-459.):
When a hERG semi-inhibitory concentration of a medicine exceeded about 30 times of a peak concentration thereof in blood, the concentration was in a relatively safe range (Redfernelt al, Cardiovascular Research, 58, 32-45 (2003)).

The subject of series [2] is RPMI-8226 (human multiple myeloma cell). The experiment in a line: In vitro activity test (CCK-8 cell growth inhibition). It counts as cell-based. Particulars: 48 hours incubation. On the procedure:
(§1) Cells RPMI-8226 (human multiple myeloma cell) and MM.1S (human multiple myeloma cell) were cultured in a RPMI 1640 medium containing 10% fetal bovine serum at 37[…] under 5% CO2 to a logarithmic growth phase. The cells were respectively inoculated into a 96-well culture plate in a quantity of 3×10^4/well. After culturing for 24 hours at 37[…] under 5% CO2, a solvent control DMSO (dimethyl sulfoxide) or a tested compound (the tested compound taken 0.3 μM as an initial concentration, was diluted 3 times each time, and was diluted 5 times in total to obtain 6 concentration gradients) dissolved in the DMSO was added into the cells. The tested compound was incubated with the cells for 48 hours at 37[…] under 5% CO2. A CCK-8 reagent was added into each well, and incubated at 37 °C for 2 hours according to a reagent specification, and an optical density value of each well was read at a wavelength of 450 nm using a spectrophotometer.
(§2) An optical density value of the cells when the medicine acted for 0 hour was set as a Tz value, which represented a value of the cells when the medicine was added. The optical density value of the cells when the solvent control DMSO acted for 48 hours was set as a C value; and the optical density value of the cells when the tested compound acted for 48 hours was set as a Ti value. According to a method proposed by the NIH-NCI (National Institutes of Health-National Cancer Institute) of the United States, a response of the cells to a medicine was calculated: when Ti≥Tz, the response was [(Ti−Tz)/(C−Tz)]×100; and when Ti<Tz, the response was [(Ti−Tz)/Tz]×100. According to the calculation above, a GI50 value (a concentration of the tested compound required when a cell growth inhibition rate was 50%) was calculated by the 4 Parameter Logistic Model in the XLfit software.

Series [3] concerns MM.1S (human multiple myeloma cell). The series is described as above. In kind it is cell-based. To be noted: MM1.S, 48 hours incubation, read-out: MM.IS cell GI50 (μM) value. The method, then:
as §1, §2

Chain of hERG potassium channel (Q12809 whole entry): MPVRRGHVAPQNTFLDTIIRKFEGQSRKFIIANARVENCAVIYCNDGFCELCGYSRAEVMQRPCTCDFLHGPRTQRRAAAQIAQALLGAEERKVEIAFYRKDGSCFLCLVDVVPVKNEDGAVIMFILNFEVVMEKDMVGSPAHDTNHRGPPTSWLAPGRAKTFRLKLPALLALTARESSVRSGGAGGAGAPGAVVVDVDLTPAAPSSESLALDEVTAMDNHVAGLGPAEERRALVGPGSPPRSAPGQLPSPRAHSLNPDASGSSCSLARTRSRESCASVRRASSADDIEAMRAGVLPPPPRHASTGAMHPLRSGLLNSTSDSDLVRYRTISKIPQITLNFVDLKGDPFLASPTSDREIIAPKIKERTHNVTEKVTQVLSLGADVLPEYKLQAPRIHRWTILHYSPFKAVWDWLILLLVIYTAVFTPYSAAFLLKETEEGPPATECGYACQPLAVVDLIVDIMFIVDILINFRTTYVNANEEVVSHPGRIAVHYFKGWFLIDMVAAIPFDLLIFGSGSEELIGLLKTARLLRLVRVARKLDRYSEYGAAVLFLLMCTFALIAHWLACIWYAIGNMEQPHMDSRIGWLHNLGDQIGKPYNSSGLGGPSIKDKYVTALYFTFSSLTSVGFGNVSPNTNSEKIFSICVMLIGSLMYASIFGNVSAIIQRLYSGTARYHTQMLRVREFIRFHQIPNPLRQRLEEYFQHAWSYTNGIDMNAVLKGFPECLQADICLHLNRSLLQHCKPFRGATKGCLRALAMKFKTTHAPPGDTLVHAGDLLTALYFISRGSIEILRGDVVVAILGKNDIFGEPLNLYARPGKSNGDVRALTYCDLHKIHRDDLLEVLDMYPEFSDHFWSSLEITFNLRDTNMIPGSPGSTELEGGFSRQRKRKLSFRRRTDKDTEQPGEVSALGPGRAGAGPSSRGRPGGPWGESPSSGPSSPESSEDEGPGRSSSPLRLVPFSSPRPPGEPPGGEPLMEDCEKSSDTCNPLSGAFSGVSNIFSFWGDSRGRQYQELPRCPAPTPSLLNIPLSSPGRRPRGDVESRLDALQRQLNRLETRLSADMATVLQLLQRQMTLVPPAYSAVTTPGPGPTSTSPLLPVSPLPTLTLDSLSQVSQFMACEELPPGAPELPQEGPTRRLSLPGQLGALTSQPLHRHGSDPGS

Usually IC50 stands for the concentration at which inhibition is half-maximal. Low values mean greater potency, high ones weaker potency. For the compound `CC(C)C[C@H](NC(=O)CNC(=O)c1cc(Br)ccc1Cl)B1OC(=O)c2ccccc2O1` [compound 8a], the “stability under high-temperature and high-humidity accelerated test condition” value in series [1] is recorded as “better stabilities”. The “hERG current inhibition ratio %” value on hERG potassium channel (0.3 μM, n 3) is 1.47% ±; at hERG potassium channel (1 μM, n 3), 5.53% ±; at hERG potassium channel (3 μM, n 3), 4.36% ±; on hERG potassium channel (10 μM, n 3), 11.24% ±; at hERG potassium channel (30 μM, n 3), 7.86% ±. Also, at hERG potassium channel (judged by the standard of b169), the “inhibitory effect on the hERG potassium channel (judged by general standard)” value was “no inhibitory effect”. Further, the IC50 against hERG potassium channel (patch clamp, n 3) was greater than 30000 nM.
A word on the GI50: it is the concentration that inhibits growth by half. `CC(C)C[C@H](NC(=O)CNC(=O)c1cc(Br)ccc1Cl)B1OC(=O)[C@@H](c2ccccc2)O1` [drawing 40]: the figures for the GI50 in series [2] and in series [3] were 0.00598 µM and 0.00275 µM, respectively.
Taken in the same sequence, the figures for `CC(C)C[C@H](NC(=O)CNC(=O)c1cc(Br)ccc1Cl)B1OCCNCCO1` [drawing 41] were 0.00651 µM and 0.00713 µM.
For `CC(C)C[C@H](NC(=O)CNC(=O)c1cc(Cl)ccc1Br)B1OCCNCCO1` [drawing 42], the GI50 in series [2] was 0.006 µM; in series [3], 0.00816 µM.
For the compound `CC(C)C[C@H](NC(=O)CNC(=O)c1cc(Cl)ccc1Cl)B1OC(=O)[C@@H](c2ccccc2)O1` [drawing 43], the GI50 turned out to be 0.0216 µM in series [2] and 0.0186 µM in series [3].
